Results on five compounds are retold here after US20220389061A1, “IMMUNOMODULATORS” (priority 2019, published 2022).

SMILES strings stand for the structures. Read-outs that look alike come from different tables or passages of the source. Starred links: 1 amine or outer side, 2 acyl side, 3 side chain; linkers in the order of their positions; H or OH if unused. Positions of bridges follow the written chain, without caps; N, C: chain ends. Non-standard residues stand in square brackets, D forms with d. Residues, ends and D or L forms follow the SMILES beside them. Groups on a side chain read outwards from the residue. *: point of attachment. Trp(1-CH2COOH) = N[C@@H](Cc1cn(CC(=O)O)c2ccccc12)C(=O)O; NH(2-Cl-4-NO2-phenyl) = O=[N+]([O-])c1ccc(N*)c(Cl)c1; X49 = N#Cc1ccccc1NC(=N)c1ccccc1N*; Hyp = O=C(O)[C@@H]1C[C@@H](O)CN1; X55 = COc1cc(NC(=S)*)cc(OC)c1; NMeNle = CCCC[C@H](NC)C(=O)O; X6 = CCCCCCCOc1ccc(N*)cc1; 3Abz = Nc1cccc(C(=O)O)c1; NMeA = CN[C@@H](C)C(=O)O; Dab = NCC[C@H](N)C(=O)O; Dap = NC[C@H](N)C(=O)O; CO = O=C([*:1])[*:2]

For the assay, the target named is T1, PD-1/PD-L1 (Homo sapiens, UniProt Q9NZQ7).
T1 construct: TVMV protease site linker (C); made in house; host or cells: HEK293T cells
The assay can be described thus: PD-1/PD-L1 Homogenous Time-Resolved Fluorescence (HTRF) binding assay. The gist of the method: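 HTRF read-out using europium cryptate anti-Ig (1 nM) and APC anti-His (20 nM) on extracellular-domain fusion proteins in dPBS/0.1% BSA/0.05% Tween-20. Inhibitor first incubated 15 min with 10 nM PD-L1-His, followed by 20 nM PD-1-Ig for another 15 min.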

The mark [1] stands for this setting: PD-L1-His 10 nM pre-incubated with inhibitor, PD-1-Ig 20 nM, read-out: HTRF IC50.

T1 sequence (Q9NZQ7 18-239): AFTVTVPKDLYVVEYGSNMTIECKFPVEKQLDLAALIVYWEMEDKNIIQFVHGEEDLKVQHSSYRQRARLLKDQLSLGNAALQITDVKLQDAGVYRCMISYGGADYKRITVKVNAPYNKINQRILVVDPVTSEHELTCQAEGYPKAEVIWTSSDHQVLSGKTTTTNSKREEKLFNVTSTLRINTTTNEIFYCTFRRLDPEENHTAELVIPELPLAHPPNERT

In turn, `CCCC[C@H]1C(=O)N(C)[C@@H](CCCC)C(=O)N[C@@H](CC(C)C)C(=O)N[C@H](C(=O)NCC(N)=O)CSCC(=O)N[C@@H](Cc2ccc(O)cc2)C(=O)N(C)[C@@H](C)C(=O)N[C@@H](CC(N)=O)C(=O)N2CCC[C@H]2C(=O)N[C@@H](CNC(=O)Nc2ccc([N+](=O)[O-])cc2Cl)C(=O)N[C@@H](CC(C)C)C(=O)N2C[C@H](O)C[C@H]2C(=O)N[C@@H](Cc2c[nH]c3ccccc23)C(=O)N[C@@H](CCNC(=O)Nc2ccc([N+](=O)[O-])cc2Cl)C(=O)N[C@@H](Cc2cn(CC(=O)O)c3ccccc23)C(=O)N1C` [Example 1096] ({CH2CO}-Y[NMeA]NP[Dap]([CO-NH(2-Cl-4-NO2-phenyl)])L[Hyp]W[Dab]([CO-NH(2-Cl-4-NO2-phenyl)])[Trp(1-CH2COOH)][NMeNle][NMeNle]LCG-NH2; thioether N-14) yielded an IC50 of 6.9 nM.

In the case of `CCCC[C@H]1C(=O)N(C)[C@@H](CCCC)C(=O)N[C@@H](CC(C)C)C(=O)N[C@H](C(=O)NCC(N)=O)CSCC(=O)N[C@@H](Cc2ccc(O)cc2)C(=O)N(C)[C@@H](C)C(=O)N[C@@H](CC(N)=O)C(=O)N2CCC[C@H]2C(=O)N[C@@H](CNC(=O)Nc2ccccc2C(=N)Nc2ccccc2C#N)C(=O)N[C@@H](CC(C)C)C(=O)N2C[C@H](O)C[C@H]2C(=O)N[C@@H](Cc2c[nH]c3ccccc23)C(=O)N[C@@H](CCN)C(=O)N[C@@H](Cc2cn(CC(=O)O)c3ccccc23)C(=O)N1C` [Example 1097] ({CH2CO}-Y[NMeA]NP[Dap]([CO-X49])L[Hyp]W[Dab][Trp(1-CH2COOH)][NMeNle][NMeNle]LCG-NH2; thioether N-14), the IC50 under setting [1] came to 5.7 nM.

For `CCCC[C@H]1C(=O)N(C)[C@@H](CCCC)C(=O)N[C@@H](CC(C)C)C(=O)N[C@H](C(=O)NCC(N)=O)CSCC(=O)N[C@@H](Cc2ccc(O)cc2)C(=O)N(C)[C@@H](C)C(=O)N[C@@H](CC(N)=O)C(=O)N2CCC[C@H]2C(=O)N[C@@H](CNC(=S)Nc2cc(OC)cc(OC)c2)C(=O)N[C@@H](CC(C)C)C(=O)N2C[C@H](O)C[C@H]2C(=O)N[C@@H](Cc2c[nH]c3ccccc23)C(=O)N[C@@H](CCN)C(=O)N[C@@H](Cc2cn(CC(=O)O)c3ccccc23)C(=O)N1C` [Example 1098] ({CH2CO}-Y[NMeA]NP[Dap](X55)L[Hyp]W[Dab][Trp(1-CH2COOH)][NMeNle][NMeNle]LCG-NH2; thioether N-14), the IC50 under setting [1] worked out at 3.1 nM.

For `CCCCCCCOc1ccc(NC(=O)NC[C@@H]2NC(=O)[C@@H]3CCCN3C(=O)[C@H](CC(N)=O)NC(=O)[C@H](C)N(C)C(=O)[C@H](Cc3ccc(O)cc3)NC(=O)CSC[C@@H](C(=O)NCC(N)=O)NC(=O)[C@H](CC(C)C)NC(=O)[C@H](CCCC)N(C)C(=O)[C@H](CCCC)N(C)C(=O)[C@H](Cc3cn(CC(=O)O)c4ccccc34)NC(=O)[C@H](CCN)NC(=O)[C@H](Cc3c[nH]c4ccccc34)NC(=O)[C@@H]3C[C@@H](O)CN3C(=O)[C@H](CC(C)C)NC2=O)cc1` [Example 1099] ({CH2CO}-Y[NMeA]NP[Dap]([CO-X6])L[Hyp]W[Dab][Trp(1-CH2COOH)][NMeNle][NMeNle]LCG-NH2; thioether N-14), under setting [1], the half-maximal inhibitory concentration (IC50) was determined as 2.6 nM.

In the case of `CCCC[C@H]1C(=O)N(C)[C@@H](CCCC)C(=O)N[C@@H](CC(C)C)C(=O)N[C@H](C(=O)NCC(N)=O)CSCC(=O)N[C@@H](Cc2ccc(O)cc2)C(=O)N(C)[C@@H](C)C(=O)N[C@@H](CC(N)=O)C(=O)N2CCC[C@H]2C(=O)N[C@@H](CNC(=O)Nc2cccc(C(=O)OCC)c2)C(=O)N[C@@H](CC(C)C)C(=O)N2C[C@H](O)C[C@H]2C(=O)N[C@@H](Cc2c[nH]c3ccccc23)C(=O)N[C@@H](CCNC(=O)Nc2cccc(C(=O)OCC)c2)C(=O)N[C@@H](Cc2cn(CC(=O)O)c3ccccc23)C(=O)N1C` [Example 1100] ({CH2CO}-Y[NMeA]NP[Dap]([CO-3Abz-OEt])L[Hyp]W[Dab]([CO-3Abz-OEt])[Trp(1-CH2COOH)][NMeNle][NMeNle]LCG-NH2; thioether N-14), under setting [1], the IC50 amounted to 18 nM.
